Experimental data as given in publication PMC13298843, “Substituent size versus metal binding of inhibitors with variants of influenza endonuclease^” (Journal of inorganic biochemistry, 2025).

How the values were obtained:
Type in all cases: binding, influenza A/California/04/2009(H1N1)
Settings in all cases: 200 µM
WT PAN endonuclease = WT PAN endonuclease (Influenza A virus, UniProt C3W5S0, DEL52-64/INS51G, form not given)
[1] = target: I38T mutant PAN endonuclease (Influenza A virus, UniProt C3W5S0, DEL52-64/I38T/INS51G, form not given)
[2] = target: E23K mutant PAN endonuclease (Influenza A virus, UniProt C3W5S0, DEL52-64/E23K/INS51G, form not given)

## CSc1ccccc1-c1cc(=O)c(O)c(C(=O)O)[nH]1 [Compound 3]
WT PAN endonuclease
  WT ΔTm (thermal shift): 10.89 ± 0.12 °C
[1]
  I38T ΔTm (thermal shift): 10.86 ± 0.12 °C
[2]
  E23K ΔTm (thermal shift): 7.21 ± 0.15 °C
